The values that follow come from patent US11524960B2, “Heterobicyclic inhibitors of MAT2A and methods of use for treating cancer” (AGIOS PHARMACEUTICALS, INC., priority 2018, dated 2022).

One assay concerns HCT116 MTAP−/−. The assay can be described thus: Inhibition of cellular proliferation (Cell Titer Glo), HCT116 MTAP−/−. The following applies: Homo sapiens, HCT-116, 96 h, 4 days, IC50 score, read-out: 4 Day Relative Growth Inhibition (MTAP −/−; Example 277). Format: cell-based, human. How it is done: (§1) Test compound impact on cancer cell growth was assessed by treating cancer cells with compound for 4 days and then measuring proliferation using an ATP-based cell proliferation readout (Cell Titer Glo, Promega Corporation).
(§2) In a typical assay an isogenic pair of HCT116 human colon carcinoma cell lines which vary only in MTAP deletion status (HCT116 MTAP+/+ and HCT116 MTAP−/−) were plated in 96-well dishes at appropriate cell density. Following 24 hours, cells were then treated with the candidate MAT2A inhibitor. Prior to addition to cells, the compound was first serially diluted in 100% DMSO, typically as a 3-fold serial dilution starting at 500× top dose with 10 dose points including DMSO only control. Compound was then transferred to a working stock plate in cell culture media by adding 5 μl of compound in DMSO to 495 μl of cell culture media. This working stock was then added to cells via a further 5-fold dilution, by adding 25 μl of working stock to 100 μl of cells in culture media. Following compound addition, cells were incubated at 37° C./5% C02 for 4 days.
(§3) To measure inhibition of cellular proliferation, cells were allowed to equilibrate to room temperature for 30 minutes, and were then treated with 125 μl of Cell Titer Glo reagent. The plate was then covered with aluminum foil and shaken for 15 minutes to ensure complete mixing and full cell lysis. Luminescent signal was then measured using a plate-based luminometer Veritas version 1.9.2 using ATP standard curve to confirm assay reproducibility from run to run. This luminescence measure was converted to a proliferation index by subtracting from each data point the ATP luminescence signal measured from a bank (no cells) well and dividing by the ATP luminescence signal measured in 0.2% DMSO control well adjusted for signal in blank well. Compound activity was then represented as a percentage change in proliferation relative to a within-plate DMSO control against log10 of compound concentration in molar (M) units.

In another assay the target is T1, MAT2A homodimer (Homo sapiens, UniProt P31153).
T1 construct: inferred from Ni sepharose purification and imidazole elution; made in house; host or cells: Sf9 insect cells, recombinant baculovirus (Bac to Bac, pFASTBAC1)
T1 sequence (P31153 whole entry): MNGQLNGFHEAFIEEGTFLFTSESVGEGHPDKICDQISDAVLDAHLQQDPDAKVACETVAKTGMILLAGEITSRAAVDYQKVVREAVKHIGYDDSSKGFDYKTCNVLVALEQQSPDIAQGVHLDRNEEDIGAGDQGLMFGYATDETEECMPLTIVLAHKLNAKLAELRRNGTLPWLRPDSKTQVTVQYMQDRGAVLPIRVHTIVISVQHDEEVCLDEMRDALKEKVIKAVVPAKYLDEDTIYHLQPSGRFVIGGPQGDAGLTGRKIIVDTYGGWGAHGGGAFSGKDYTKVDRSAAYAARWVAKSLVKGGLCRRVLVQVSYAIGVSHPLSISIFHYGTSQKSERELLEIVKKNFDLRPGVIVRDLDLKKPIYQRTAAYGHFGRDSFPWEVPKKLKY
Kind of assay: Biochemical assay: inhibition of MAT2A (phosphate release, PiColorLock Gold). The following applies: MAT2A IC50 score; read-out: Enzyme Inhibition (Example 275). Summed up: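 Baculovirus/Sf9-expressed, Ni-purified MAT2A at 4 µg/mL was preincubated with compound for 60 min at 25 °C in 50 mM Tris pH 8.0, 50 mM KCl, 15 mM MgCl2, 0.3 mM EDTA, 0.005% BSA. Substrate mix (500 μM ATP, 400 μM L-methionine) was added and the reaction ran 60 min at 25 °C. Phosphate released stoichiometrically with SAM was measured colorimetrically against a phosphate standard curve.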

The next assay has as its system HCT116 MTAP+/+. Kind of assay: Inhibition of cellular proliferation (Cell Titer Glo), HCT116 MTAP+/+. In kind it is cell-based, human. The following applies: Homo sapiens, HCT-116, 96 h, 4 days, IC50 score, read-out: 4 Day Relative Growth Inhibition (MTAP +/+; Example 277). The procedure: as §1, §2, §3
For orientation: Cellular ATP, detected with luciferase, serves as a proxy for viable cell number.

The subject of assay [1] is SAM in HCT116 human colon carcinoma cell line engineered to delete the MTAP gene (MTAP −/−). Kind of assay: Cellular assay of target engagement (SAM) by LC-MS/MS. The following applies: Homo sapiens, HCT-116, 72 h, IC50 score, read-out: Cell 72 h SAM Inhibition (MTAP −/−; Example 276). In kind it is cell-based. The procedure:
Measurement of MAT2A activity in cells was made by direct quantitation of the abundance of the product of its enzymatic activity, SAM. Cancer cells were treated with candidate MAT2A inhibitors for a suitable incubation period, and the cells were then lysed using a reagent which quenched any further enzyme activity. Soluble metabolites including SAM were collected and SAM itself was directly measured from the lysate using quantitative LC-MS/MS.
A typical assay was performed using an HCT116 human colon carcinoma cell line which was genetically engineered to delete the MTAP gene (commercially available from Horizon Discovery). This cell line was utilized because it was determined that loss of the MTAP gene predicts sensitivity to MAT2A inhibitors. Cells were plated in 96-well dishes at appropriate cell density. Following 24 hours, cells were then treated with the candidate MAT2A inhibitor. Prior to addition to cells, the compound was first serially diluted in 100% DMSO, typically as a 3-fold serial dilution starting at 500× top dose with 10 dose points including DMSO only control. Compound was then transferred to a working stock plate in cell culture media by adding 5 μl of compound in DMSO to 495 μl of cell culture media. This working stock was then added to cells via a further 5-fold dilution, by adding 25 μl of working stock to 100 μl of cells in culture media. Following compound addition, cells were incubated at 37° C./5% CO2 for 72 hrs.
To quantitate SAM levels following compound treatment, cells were gently washed once in Ammonium Carbonate buffer (75 mM at pH 7.4), placed on dry ice, and lysed with metabolite extraction buffer (80% cold methanol and 20% water (v/v) with acetic acid at 1 M final concentration with 200 ng/mL deuterated d3-SAM as internal control). Following centrifugation at 4° C. at 3,200 rpm for 30 minutes, the supernatant was collected and stored at −80° C. until analysis by Liquid Chromatography with tandem Mass Spectrometry (LC-MS/MS). LC-MS/MS analysis was performed using an API6500 Mass Spectrometer (Sciex, Framingham, Mass., USA) operating in positive ion spray mode and equipped with a Waters UPLC Acquity (Waters, Milford, Mass., USA) BEH Amide column. Multiple Reaction Monitoring data was acquired for SAM and the d3-SAM standard, using a mass transition pair at m/z 399.2→250.1 and 402.2→250.1, respectively. In a typical LC-MS/MS analysis, the initial flow rate was 0.5 ml/min of 25% mobile phase A (acetonitrile and water at 5:95 (v/v) with 1% formic acid and 10 mM ammonium acetate) and 75% mobile phase B (acetonitrile and water at 95:5 (v/v) with 1% formic acid and 10 mM ammonium acetate), 0.2-0.5 minutes with 75%-35% mobile phase B, 25%-65% mobile phase A, at 0.5 min 65% mobile phase A and 35% mobile phase B, 1.0-1.1 minutes with 35%-75% mobile phase B, 65%-25% mobile phase A, at 1.1 min 25% mobile phase A and 75% mobile phase B with a total run time of 1.5 minutes.

Consider `Cn1cc2cc(-n3cc4ccc(OCC(F)(F)F)nc4c(-c4ccc(OC(F)F)nc4)c3=O)ccc2n1` [Example 110-A], for which the IC50 in the assay on HCT116 MTAP−/− was < 0.1 µM; at MAT2A homodimer, < 0.1 µM; with HCT116 MTAP+/+, 0.1 to 10 µM; in assay [1] it was < 0.1 µM.

Consider `CCOc1ccc2cn(-c3ccc4nccnc4c3)c(=O)c(-c3ccc(Cl)cc3)c2n1` [Example 244, 8-(4-chlorophenyl)-2-ethoxy-6-(quinoxalin-6-yl)-1,6-naphthyridin-7(6H)-one], for which the IC50 in the assay on HCT116 MTAP−/− was < 0.1 µM; at MAT2A homodimer, < 0.1 µM; in the assay with HCT116 MTAP+/+ it was 0.1 to 10 µM; in assay [1], < 0.1 µM.

As to `Cn1cnc2ccc(-n3cc4ccc(NCC(F)(F)F)nc4c(-c4ccc(OC(F)F)cc4)c3=O)cc21` [Example 240, 8-(4-(difluoromethoxy)phenyl)-6-(1-methyl-1H-benzo[d]imidazol-6-yl)-2-(2,2,2-trifluoroethylamino)-1,6-naphthyridin-7(6H)-one], the IC50 in the assay with HCT116 MTAP−/− was < 0.1 µM; on MAT2A homodimer, < 0.1 µM; with HCT116 MTAP+/+, > 10 µM; in assay [1], < 0.1 µM.

On to `CCOc1ccc2cn(-c3ccc(=O)n(CCS(C)(=O)=O)c3)c(=O)c(-c3ccc(OC(F)F)cc3)c2n1` [Example 249, 8-(4-(difluoromethoxy)phenyl)-2-ethoxy-6-(1-(2-(methylsulfonyl)ethyl)-6-oxo-1,6-dihydropyridin-3-yl)-1,6-naphthyridin-7(6H)-one], for which the IC50 in the assay with HCT116 MTAP−/− is 0.1 to 10 µM; on MAT2A homodimer, < 0.1 µM; with HCT116 MTAP+/+, 0.1 to 10 µM; in assay [1], < 0.1 µM.

Take `CCOc1cc(C)c2cn(-c3ccc4nn(C)cc4c3)c(=O)c(-c3ccc(Cl)cc3)c2n1` [Example 122-A]: the IC50 in the assay with HCT116 MTAP−/− is < 0.1 µM; at MAT2A homodimer, < 0.1 µM; in the assay on HCT116 MTAP+/+, 0.1 to 10 µM; in assay [1] it was < 0.1 µM.

In the case of `CCOc1ccc2cn(-c3ccc4nn(C)cc4c3)c(=O)c(-c3ccc(Cl)cc3)c2n1` [Example 247, 8-(4-chlorophenyl)-2-ethoxy-6-(2-methyl-2H-indazol-5-yl)-1,6-naphthyridin-7(6H)-one], the IC50 was < 0.1 µM with HCT116 MTAP−/−, < 0.1 µM on MAT2A homodimer, 0.1 to 10 µM in the assay with HCT116 MTAP+/+ and < 0.1 µM in assay [1].

For the compound `CCOc1ccc2cn(-c3ccc4nn(C(C)C)cc4c3)c(=O)c(-c3ccc(Cl)cc3)c2n1` [Example 104-A], the IC50 was 0.1 to 10 µM with HCT116 MTAP−/−, < 0.1 µM at MAT2A homodimer, 0.1 to 10 µM with HCT116 MTAP+/+ and < 0.1 µM in assay [1].

Consider `CCOc1ccc2cn(-c3ccc4nn(C)cc4c3)c(=O)c(-c3ccc(CF)nc3)c2n1` [Example 137-A, 2-ethoxy-8-(6-(fluoromethyl)pyridin-3-yl)-6-(2-methyl-2H-indazol-5-yl)-1,6-naphthyridin-7(6H)-one], for which the IC50 with HCT116 MTAP−/− is < 0.1 µM; at MAT2A homodimer, < 0.1 µM; in the assay on HCT116 MTAP+/+ it was 0.1 to 10 µM; in assay [1], < 0.1 µM.

Take `O=c1c(-c2ccc(OC(F)F)cc2)c2nc(NCC(F)(F)F)ncc2cn1-c1ccc2c(c1)OCCO2` [Example 178, 8-(4-(difluoromethoxy)phenyl)-6-(2,3-dihydrobenzo[b][1,4]dioxin-6-yl)-2-((2,2,2-trifluoroethyl)amino)pyrido[4,3-d]pyrimidin-7(6H)-one]: the IC50 with HCT116 MTAP−/− is 0.1 to 10 µM; at MAT2A homodimer, < 0.1 µM; with HCT116 MTAP+/+, 0.1 to 10 µM; in assay [1] it was < 0.1 µM.

`CCOc1cnc2cn(-c3ccc4nn(C)cc4c3)c(=O)c(-c3ccc(OC)cc3)c2n1` [Example 140-A]: the IC50 is < 0.1 µM in the assay with HCT116 MTAP−/−, < 0.1 µM at MAT2A homodimer, > 10 µM with HCT116 MTAP+/+ and < 0.1 µM in assay [1].

As for `CCCc1ccc2cn(-c3ccc4ncn(C)c4c3)c(=O)c(-c3ccc(OC(F)F)cc3)c2n1` [Example 260, 8-(4-(difluoromethoxy)phenyl)-6-(1-methyl-1H-benzo[d]imidazol-6-yl)-2-propyl-1,6-naphthyridin-7(6H)-one], the IC50 was < 0.1 µM in the assay with HCT116 MTAP−/−, < 0.1 µM at MAT2A homodimer, > 10 µM in the assay on HCT116 MTAP+/+ and < 0.1 µM in assay [1].

`O=c1c(-c2ccc(-c3cc[nH]n3)cc2)c2nc(NCC(F)(F)F)ncc2cn1-c1ccc2ncccc2c1` [Example 203, 8-(4-(H-pyrazol-3-yl)phenyl)-6-(quinolin-6-yl)-2-((2,2,2-trifluoroethyl)amino)pyrido[4,3-d]pyrimidin-7(6H)-one]: the IC50 was > 10 µM with HCT116 MTAP−/−, < 0.1 µM on MAT2A homodimer, > 10 µM in the assay on HCT116 MTAP+/+ and 0.1 to 1 µM in assay [1].

Regarding `CCOc1ncc2cn(-c3ccc4nn(C)cc4c3)c(=O)c(-c3ccc(Cl)cc3)c2n1` [Example 270, 8-(4-chlorophenyl)-2-ethoxy-6-(2-methyl-2H-indazol-5-yl)pyrido[4,3-d]pyrimidin-7(6H)-one], the IC50 in the assay with HCT116 MTAP−/− was < 0.1 µM; at MAT2A homodimer it was < 0.1 µM; with HCT116 MTAP+/+, > 10 µM; in assay [1] it was < 0.1 µM.

`CCOc1ccc2cn(-c3ccc4ncn(C)c4c3)c(=O)c(-c3ccc(Cl)cc3)c2n1` [Example 248, 8-(4-chlorophenyl)-2-ethoxy-6-(1-methyl-1H-benzo[d]imidazol-6-yl)-1,6-naphthyridin-7(6H)-one]: the IC50 with HCT116 MTAP−/− was < 0.1 µM; on MAT2A homodimer, < 0.1 µM; in the assay on HCT116 MTAP+/+ it was 0.1 to 10 µM; in assay [1], < 0.1 µM.

With `CCOc1cnc2cn(-c3ccc4nn(C)cc4c3)c(=O)c(-c3ccc(Cl)cc3)c2n1` [Example 147-A], the IC50 in the assay on HCT116 MTAP−/− was < 0.1 µM; on MAT2A homodimer, < 0.1 µM; with HCT116 MTAP+/+, > 10 µM; in assay [1], < 0.1 µM.

With `CCOc1ccc2cn(-c3ccc4nn(C)cc4c3)c(=O)c(-c3ccc(OC(F)(F)F)nc3)c2n1` [Example 133-A], the IC50 (with HCT116 MTAP−/−; on MAT2A homodimer; in assay [1]) was < 0.1 µM each time.

Consider `O=C1N(c2cn[nH]c2)Cc2cnc(NCC3CC3)nc2C12CCN(Cc1ccccc1F)C2` (stereo not shown) [Example 122, 2-((cyclopropylmethyl)amino)-1′-(2-fluorobenzyl)-6-(1H-pyrazol-4-yl)-5,6-dihydro-7H-spiro[pyrido[4,3-d]pyrimidine-8,3′-pyrrolidin]-7-one], for which the IC50 at MAT2A homodimer is 0.1 to 1 µM.
